The numbers were not newly measured in patent US20220195167A1, “COMPOSITIONS COMPRISING STYRENATED BLOCK COPOLYMER, NON-POLAR OIL AND POLAR OIL” (L'OREAL, priority 2020, published 2022), which cites them from elsewhere.

For orientation: log P means the decadic logarithm of the partition coefficient of the neutral form, usually between octanol and water. As for `CC(C)CCCCCCCOC(=O)C(C)(C)C` [Isodecyl neopentanoate], the “log P” value was 6.00.

Consider `CC(C)CCCCCCCCCCCCCCC(=O)OC(C)C` [Isopropyl isostearate], for which the lipophilicity (log P) was 9.37.

On to `CCCCCCCCCCCCCCCC(=O)OC(C)C` [Isopropyl palmitate], for which the log partition coefficient (log P) is listed as 8.49.

Consider `CC(C)CCCCCCCCCCCCCCCOC(=O)C(C)(C)C` [Isostearyl neopentanoate], for which the log partition coefficient (log P) is 10.25.

Regarding `CCCCCCCC(=O)OCC(COC(=O)CCCCCCC)OC(=O)CCCCCCC` [Tricaprylin], the “log P” value was 9.33.
